Data as given in BindingDB's records for doi:10.3109/14756361003698147 (Shandong University, 2012).
Where a name gives a salt, the structure may show the parent alone.

Assays:
[1] = biological target: 72 kDa type IV collagenase (Homo sapiens, UniProt P08253); test: In Vitro MMP-2 Inhibition Assay; conditions: pH 8.5; 25 °C
Aminopeptidase N = biological target: T1, Aminopeptidase N (Sus scrofa, UniProt P15145); test: In Vitro APN Inhibition Assay
T1 sequence (P15145 whole entry): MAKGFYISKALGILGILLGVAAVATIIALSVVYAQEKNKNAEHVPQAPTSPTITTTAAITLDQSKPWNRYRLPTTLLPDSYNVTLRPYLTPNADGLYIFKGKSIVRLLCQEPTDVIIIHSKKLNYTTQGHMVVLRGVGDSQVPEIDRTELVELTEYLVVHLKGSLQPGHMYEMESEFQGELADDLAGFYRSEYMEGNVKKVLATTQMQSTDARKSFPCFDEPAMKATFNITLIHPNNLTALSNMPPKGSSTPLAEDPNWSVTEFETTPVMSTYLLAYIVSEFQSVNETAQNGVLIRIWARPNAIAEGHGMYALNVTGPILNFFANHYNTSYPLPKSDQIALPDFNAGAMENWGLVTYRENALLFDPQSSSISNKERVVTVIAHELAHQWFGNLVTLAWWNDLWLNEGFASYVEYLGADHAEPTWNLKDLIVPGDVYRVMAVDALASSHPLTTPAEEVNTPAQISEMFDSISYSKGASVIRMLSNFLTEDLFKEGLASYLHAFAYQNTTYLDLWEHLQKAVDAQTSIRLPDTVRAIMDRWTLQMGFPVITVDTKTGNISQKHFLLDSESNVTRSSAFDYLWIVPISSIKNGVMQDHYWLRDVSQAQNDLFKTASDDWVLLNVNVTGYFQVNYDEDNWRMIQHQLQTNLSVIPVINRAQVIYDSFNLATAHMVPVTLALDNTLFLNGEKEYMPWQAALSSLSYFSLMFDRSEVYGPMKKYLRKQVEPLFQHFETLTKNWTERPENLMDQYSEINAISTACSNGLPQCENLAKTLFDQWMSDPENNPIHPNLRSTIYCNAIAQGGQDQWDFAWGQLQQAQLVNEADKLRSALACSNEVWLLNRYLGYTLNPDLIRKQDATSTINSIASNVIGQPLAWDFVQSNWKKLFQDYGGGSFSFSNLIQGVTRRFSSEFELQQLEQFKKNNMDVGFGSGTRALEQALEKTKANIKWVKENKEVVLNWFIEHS
Protocol: Allcompounds were pre-incubated with APN on a 96-well plate for 30 min. […] Fifteen minutes later, the absorbance (OD405) of the wells was recorded on a microplate reader.

72 kDa type IV collagenase, sequence (P08253 whole entry): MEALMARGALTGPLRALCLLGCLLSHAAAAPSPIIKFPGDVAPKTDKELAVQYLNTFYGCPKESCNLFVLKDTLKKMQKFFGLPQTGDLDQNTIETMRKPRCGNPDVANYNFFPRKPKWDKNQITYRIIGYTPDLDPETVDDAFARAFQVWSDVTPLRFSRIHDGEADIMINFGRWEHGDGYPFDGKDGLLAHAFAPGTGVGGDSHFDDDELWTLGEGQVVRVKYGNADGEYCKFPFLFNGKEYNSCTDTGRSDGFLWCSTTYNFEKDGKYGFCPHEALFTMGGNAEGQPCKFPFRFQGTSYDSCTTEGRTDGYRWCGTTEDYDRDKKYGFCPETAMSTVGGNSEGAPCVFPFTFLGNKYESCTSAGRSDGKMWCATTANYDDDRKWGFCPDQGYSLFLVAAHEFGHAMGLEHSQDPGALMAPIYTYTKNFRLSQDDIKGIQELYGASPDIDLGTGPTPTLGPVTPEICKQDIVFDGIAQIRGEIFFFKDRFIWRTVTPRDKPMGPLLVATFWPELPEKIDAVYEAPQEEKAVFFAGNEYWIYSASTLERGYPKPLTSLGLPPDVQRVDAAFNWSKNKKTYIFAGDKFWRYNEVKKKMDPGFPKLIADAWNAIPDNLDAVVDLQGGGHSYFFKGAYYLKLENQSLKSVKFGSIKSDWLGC

SMILES	IC50 [1]	IC50 (Aminopeptidase N)
CC(C)C[C@H](NC(=O)[C@@H](O)[C@H](N)Cc1ccccc1)C(=O)O	167 µM	
CC(C)C[C@H](NC(=O)[C@@H](O)CN)C(=O)O	364 µM	199 µM
NC[C@H](O)C(=O)N[C@@H](Cc1ccccc1)C(=O)O [(2S)-2-[(2S)-3-amino-2-hydroxypropanamido]-3-phenylpropanoic acid (12a)]	710 µM	249 µM
NC[C@H](O)C(=O)N[C@@H](Cc1ccccc1)C(=O)OCc1ccccc1 [L-Isoseryl-L- phenylalanine benzyl ester hydrochloride (11c)]	329 µM	99.5 µM
CC(C)C[C@H](NC(=O)[C@@H](O)CN)C(=O)OCc1ccccc1 [L-Isoseryl-L-leucine benzyl ester hydrochloride (11d)]	1000 µM	195 µM
COC(=O)[C@H](CC(C)C)NC(=O)[C@@H](O)CN [L-Isoseryl-L-leucine methyl ester hydrochloride (11b)]	682 µM	229 µM
CC(C)C[C@H](NC(=O)[C@@H](O)CN)C(=O)N[C@@H](Cc1ccccc1)C(=O)O [L-Isoseryl-L-leucyl-L-phenylalanine hydrochloride (14a)]	115 µM	20.9 µM

Continued, values first:

IC50 [1]	IC50 (Aminopeptidase N)	SMILES
126 µM	140 µM	COC(=O)[C@H](Cc1ccccc1)NC(=O)[C@H](CC(C)C)NC(=O)[C@@H](O)CN [L-Isoseryl-L-leucyl-L-phenylalanine methyl ester hydrochloride (13a)]
334 µM	32.2 µM	CC(C)C[C@H](NC(=O)[C@H](Cc1ccccc1)NC(=O)[C@@H](O)CN)C(=O)OCc1ccccc1 [L-Isoseryl-L-phenylalanyl-L-leucine benzyl ester hydrochloride (13d)]
203 µM	12.2 µM	CC(C)C[C@H](NC(=O)[C@H](Cc1ccccc1)NC(=O)[C@@H](O)CN)C(=O)O [L-Isoseryl-L-phenylalanyl-L-leucine hydrochloride (14b)]
> 1000 µM	302 µM	COC(=O)[C@H](Cc1ccccc1)NC(=O)[C@@H](O)CN [Methyl (2S)-2-[(2S)-3-amino-2-hydroxypropanamido]-3-phenylpropanoate (11a)]
